Drawing on patent publication US11530217B1, “Antitubercular compounds” (priority 2022, dated 2022), this text covers MIC for ten compounds.

Converted amounts (≈) assume the structure as drawn.

One assay concerns susceptible H37Rv MTB strain. Description: Resazurin Microplate Assay (REMA), anti-tubercular activity, H37Rv. It is filed as cell-based. Particulars: Mycobacterium tuberculosis, 192 h; in vitro, REMA, susceptible H37Rv MTB strain, 8 days incubation; read-out: MIC (μg/mL) H37Rv. (In general: The colour change of resazurin is a common sign of viable cells or microbes.)
On to `COC(=O)c1c(C(=O)OC)c2c(C)cc(C)cn2c1C(=O)c1ccc(Cl)cc1` [Compound 5d, Dimethyl 3-(4-chlorobenzoyl)-6,8-dimethylindolizine-1,2-dicarboxylate], for which the MIC came to 8 µg/mL (≈ 20 µM).

Take `CCOC(=O)c1cc(C(=O)c2ccc(Cl)cc2)n2cc(C)cc(C)c12` [Compound 5c, Ethyl 3-(4-chlorobenzoyl)-6,8-dimethylindolizine-1-carboxylate]: the MIC amounted to 0.5 µg/mL (≈ 1.41 µM).

Turning to `COC(=O)c1c(C(=O)OC)c2c(C)cc(C)cn2c1C(=O)c1ccc(C#N)cc1` [Compound 5l, Dimethyl 3-(4-cyanobenzoyl)-6,8-dimethylindolizine-1,2-dicarboxylate], the MIC is 4 µg/mL (≈ 10.2 µM).

The assay is the same for the next values; noted with them: Mycobacterium tuberculosis, H37RV, 192 h, read-out: MIC (μg/mL) H37Rv.
On to `CCOC(=O)c1cc(C(=O)c2ccccc2[N+](=O)[O-])n2cc(C)cc(C)c12` [Compound 5h, Ethyl 6,8-dimethyl-3-(2-nitrobenzoyl)indolizine-1-carboxylate], for which the MIC was found to be 4 µg/mL (≈ 10.9 µM).

As to `COC(=O)c1c(C(=O)OC)c2c(C)cc(C)cn2c1C(=O)c1ccc(OC)cc1` [Compound 5b, Dimethyl 3-(4-methoxybenzoyl)-6,8-dimethylindolizine-1,2-dicarboxylate], the MIC was 4 µg/mL (≈ 10.1 µM).

Take `CCOC(=O)c1cc(C(=O)c2ccc(C#N)cc2)n2cc(C)cc(C)c12` [Compound 5j, Ethyl 3-(4-cyanobenzoyl)-6,8-dimethylindolizine-1-carboxylate]: the MIC was 0.5 µg/mL (≈ 1.44 µM).

On to `COC(=O)c1c(C(=O)OC)c2c(C)cc(C)cn2c1C(=O)c1ccc(C)cc1` [Compound 5m, Dimethyl 6,8-dimethyl-3-(4-methylbenzoyl)indolizine-1,2-dicarboxylate], for which the MIC came out at 0.25 µg/mL (≈ 0.659 µM).

In the case of `CCOC(=O)c1cc(C(=O)c2ccc(F)cc2)n2cc(C)cc(C)c12` [Compound 5g, Ethyl 3-(4-fluorobenzoyl)-6,8-dimethylindolizine-1-carboxylate], the MIC was found to be 4 µg/mL (≈ 11.8 µM).

On to `CCOC(=O)c1cc(C(=O)c2cc(C(F)(F)F)cc(C(F)(F)F)c2)n2cc(C)cc(C)c12` [Compound 5i, Ethyl 3-(3,5-bis(trifluoromethyl)benzoyl)-6,8-dimethylindolizine-1-carboxylate], for which the MIC was found to be 4 µg/mL (≈ 8.75 µM).

Regarding `CCOC(=O)c1cc(C(=O)c2ccc(C)cc2)n2cc(C)cc(C)c12` [Compound 5k, Ethyl 6,8-dimethyl-3-(4-methylbenzoyl)indolizine-1-carboxylate], the MIC was 0.5 µg/mL (≈ 1.49 µM).
